# Data published in ChEMBL document CHEMBL3885861, “Open TG-GATES”.
# Species: Rattus norvegicus
# Experiment: Open TG-GATES - Regimen: Single
# Format: toxicity, organism-based, Sprague-Dawley
# Set-up: regimen Single, gender Male, age 6 weeks
# Settings: in vivo, po, 1000 mg/kg, route gavage, dose level High; for APTT / Bas / Eos / Fbg / Hb / Ht / Lym / MCH / MCHC / MCV / Mono / Neu / PT / Plat / RBC / Ret / WBC: tissue Blood; for KIDNEY_L / KIDNEY_R / KIDNEY_TOTAL: tissue Kidney; for LIVER: tissue Liver; for A/G / ALP / ALT / AST / BUN / CRE / Ca / Cl / DBIL / GLC / IP / K / LDH / Na / PL / RALB / TBIL / TC / TG / TP / gamma-GTP: tissue Plasma
smiles,measurement,setting,value
CN(C)[C@@H]1C(O)=C(C(N)=O)C(=O)[C@@]2(O)C(O)=C3C(=O)c4c(O)cccc4[C@@](C)(O)[C@H]3C[C@@H]12 [TETRACYCLINE],TERMINAL_BW,3 h,185.9 g
same,APTT,3 h,15.7 s
same,Bas,3 h,0%
same,Eos,3 h,0.4%
same,Fbg,3 h,217.2 mg/dL
same,Hb,3 h,13.5 g/dL
same,Ht,3 h,40.5%
same,Lym,3 h,79.8%
same,MCH,3 h,22.1 pg
same,MCHC,3 h,33.3%
same,MCV,3 h,66.4 fL
same,Mono,3 h,6.4%
same,Neu,3 h,13.2%
same,PT,3 h,11.9 s
same,Plat,3 h,103.4 x10_4/uL
same,RBC,3 h,610 x10_4/ul
same,Ret,3 h,9.5%
same,WBC,3 h,108.1 x10_2/uL
same,KIDNEY_L,3 h,0.8 g
same,KIDNEY_R,3 h,0.8 g
same,KIDNEY_TOTAL,3 h,1.7 g
same,LIVER,3 h,8.5 g
same,A/G,3 h,2.2
same,ALP,3 h,770.2 IU/L
same,ALT,3 h,44 IU/L
same,AST,3 h,72.8 IU/L
same,BUN,3 h,15.6 mg/dL
same,CRE,3 h,0.5 mg/dL
same,Ca,3 h,11.1 mg/dL
same,Cl,3 h,105.8 meq/L
same,DBIL,3 h,0.03 mg/dL
same,GLC,3 h,184.8 mg/dL
same,IP,3 h,12 mg/dL
same,K,3 h,5 meq/L
same,LDH,3 h,142.4 IU/L
same,Na,3 h,138 meq/L
same,PL,3 h,132 mg/dL
same,RALB,3 h,3.8 g/dL
same,TBIL,3 h,0.6 mg/dL
same,TC,3 h,77.8 mg/dL
same,TG,3 h,36.8 mg/dL
same,TP,3 h,5.6 g/dL
same,gamma-GTP,3 h,1.8 IU/L
same,TERMINAL_BW,6 h,184.3 g
same,APTT,6 h,17.2 s
same,Bas,6 h,0%
same,Eos,6 h,0.4%
same,Fbg,6 h,193 mg/dL
same,Hb,6 h,13.4 g/dL
same,Ht,6 h,40.4%
same,Lym,6 h,79%
same,MCH,6 h,21.9 pg
same,MCHC,6 h,33.1%
same,MCV,6 h,66.1 fL
same,Mono,6 h,7.2%
same,Neu,6 h,13.4%
same,PT,6 h,12.2 s
same,Plat,6 h,101.1 x10_4/uL
same,RBC,6 h,612.4 x10_4/ul
same,Ret,6 h,10.1%
same,WBC,6 h,100.4 x10_2/uL
same,KIDNEY_L,6 h,0.9 g
same,KIDNEY_R,6 h,0.9 g
same,KIDNEY_TOTAL,6 h,1.8 g
same,LIVER,6 h,8.1 g
same,A/G,6 h,1.8
same,ALP,6 h,872.8 IU/L
same,ALT,6 h,39 IU/L
same,AST,6 h,74.2 IU/L
same,BUN,6 h,13.4 mg/dL
same,CRE,6 h,0.4 mg/dL
same,Ca,6 h,10.9 mg/dL
same,Cl,6 h,106.4 meq/L
same,DBIL,6 h,0.018 mg/dL
same,GLC,6 h,186.6 mg/dL
same,IP,6 h,11.9 mg/dL
same,K,6 h,5.4 meq/L
same,LDH,6 h,128.4 IU/L
same,Na,6 h,137.4 meq/L
same,PL,6 h,127 mg/dL
same,RALB,6 h,3.4 g/dL
same,TBIL,6 h,0.4 mg/dL
same,TC,6 h,71.2 mg/dL
same,TG,6 h,36.2 mg/dL
same,TP,6 h,5.2 g/dL
same,gamma-GTP,6 h,1.6 IU/L
same,TERMINAL_BW,9 h,180.6 g
same,APTT,9 h,16.8 s
same,Bas,9 h,0%
same,Eos,9 h,0.2%
same,Fbg,9 h,199.2 mg/dL
same,Hb,9 h,13.1 g/dL
same,Ht,9 h,40%
same,Lym,9 h,83.4%
same,MCH,9 h,21.5 pg
same,MCHC,9 h,32.8%
same,MCV,9 h,65.4 fL
same,Mono,9 h,5.8%
same,Neu,9 h,11%
same,PT,9 h,12.3 s
same,Plat,9 h,104 x10_4/uL
same,RBC,9 h,610.6 x10_4/ul
same,Ret,9 h,8.9%
same,WBC,9 h,66.5 x10_2/uL
same,KIDNEY_L,9 h,0.8 g
same,KIDNEY_R,9 h,0.8 g
same,KIDNEY_TOTAL,9 h,1.6 g
same,LIVER,9 h,7.7 g
same,A/G,9 h,2.2
same,ALP,9 h,769.6 IU/L
same,ALT,9 h,33.8 IU/L
same,AST,9 h,66.4 IU/L
same,BUN,9 h,12.8 mg/dL
same,CRE,9 h,0.4 mg/dL
same,Ca,9 h,11 mg/dL
same,Cl,9 h,107.4 meq/L
same,DBIL,9 h,0.044 mg/dL
same,GLC,9 h,192.4 mg/dL
same,IP,9 h,11.5 mg/dL
same,K,9 h,4.9 meq/L
same,LDH,9 h,136.2 IU/L
same,Na,9 h,139.8 meq/L
same,PL,9 h,128.8 mg/dL
same,RALB,9 h,3.7 g/dL
same,TBIL,9 h,0.4 mg/dL
same,TC,9 h,69.4 mg/dL
same,TG,9 h,25.6 mg/dL
same,TP,9 h,5.4 g/dL
same,gamma-GTP,9 h,1.2 IU/L
same,TERMINAL_BW,24 h,200.2 g
same,APTT,24 h,16.8 s
same,Bas,24 h,0%
same,Eos,24 h,0.6%
same,Fbg,24 h,208.8 mg/dL
same,Hb,24 h,13.4 g/dL
same,Ht,24 h,40.5%
same,Lym,24 h,84.2%
same,MCH,24 h,21.5 pg
same,MCHC,24 h,33%
same,MCV,24 h,65.1 fL
same,Mono,24 h,7%
same,Neu,24 h,8.2%
same,PT,24 h,11.9 s
same,Plat,24 h,105 x10_4/uL
same,RBC,24 h,621.8 x10_4/ul
same,Ret,24 h,8.9%
same,WBC,24 h,88.7 x10_2/uL
same,KIDNEY_L,24 h,0.9 g
same,KIDNEY_R,24 h,0.9 g
same,KIDNEY_TOTAL,24 h,1.9 g
same,LIVER,24 h,8.9 g
same,A/G,24 h,2.2
same,ALP,24 h,948 IU/L
same,ALT,24 h,44 IU/L
same,AST,24 h,77.2 IU/L
same,BUN,24 h,17.8 mg/dL
same,CRE,24 h,0.5 mg/dL
same,Ca,24 h,11.2 mg/dL
same,Cl,24 h,105.6 meq/L
same,DBIL,24 h,0.006 mg/dL
same,GLC,24 h,180.4 mg/dL
same,IP,24 h,9.8 mg/dL
same,K,24 h,5 meq/L
same,LDH,24 h,147 IU/L
same,Na,24 h,141.6 meq/L
same,PL,24 h,142.6 mg/dL
same,RALB,24 h,3.8 g/dL
same,TBIL,24 h,0.3 mg/dL
same,TC,24 h,74 mg/dL
same,TG,24 h,50.2 mg/dL
same,TP,24 h,5.6 g/dL
same,gamma-GTP,24 h,1 IU/L
